How the values were obtained:
[1] = system: PC-3; test: Growth inhibition of human PC-3 cells by Sulforhodamine B assay; format: functional
[2] = system: TK-10; test: Growth inhibition of human TK-10 cells by Sulforhodamine B assay; format: functional
[3] = system: UACC-62; test: Growth inhibition of human UACC-62 cells by Sulforhodamine B assay; format: functional
[4] = system: MCF7; test: Growth inhibition of human MCF7 cells by Sulforhodamine B assay; format: functional
[5] = system: A549; test: Antiproliferative activity against human A549 cells assessed as inhibition of cell growth incubated for 24 hrs by celltiter blue reagent based fluorimetric analysis; format: functional; settings: A549, 24 h
[6] = system: DU-145; test: Antiproliferative activity against human DU-145 cells assessed as inhibition of cell growth incubated for 24 hrs by celltiter blue reagent based fluorimetric analysis; format: functional; settings: DU-145, 24 h
[7] = system: RD; test: Antiproliferative activity against human RD cells assessed as inhibition of cell growth incubated for 24 hrs by celltiter blue reagent based fluorimetric analysis; format: functional
[8] = system: C6; test: Antiproliferative activity against rat C6 cells assessed as inhibition of cell growth incubated for 72 hrs by Sulforhodamine B assay; format: functional, cell-based; settings: C6, 72 h
[9] = system: MCF7; test: Antiproliferative activity against human MCF7 cells assessed as inhibition of cell growth incubated for 72 hrs by Sulforhodamine B assay; format: functional, cell-based; settings: MCF7, 72 h
[10] = system: SK-BR-3; test: Antiproliferative activity against human SK-BR-3 cells assessed as inhibition of cell growth incubated for 72 hrs by Sulforhodamine B assay; format: functional, cell-based; settings: SK-BR-3, 72 h
[11] = Antiproliferative activity against human HGF cells assessed as inhibition of cell growth incubated for 72 hrs by Sulforhodamine B assay; format: toxicity, cell-based
[12] = system: B16-F10; test: Antiproliferative activity against mouse B16-F10 cells assessed as inhibition of cell growth incubated for 72 hrs by Sulforhodamine B assay; format: functional, cell-based; settings: B16-F10, 72 h
[13] = system: MDA-MB-231; test: Antiproliferative activity against human MDA-MB-231 cells assessed as inhibition of cell growth incubated for 72 hrs by Sulforhodamine B assay; format: functional, cell-based; settings: MDA-MB-231, 72 h
[14] = system: A549; test: Antiproliferative activity against human A549 cells assessed as inhibition of cell growth incubated for 72 hrs by Sulforhodamine B assay; format: functional, cell-based; settings: A549, 72 h
[15] = system: HepG2; test: Antiproliferative activity against human HepG2 cells assessed as inhibition of cell growth incubated for 48 hrs by MTT reagent based spectrophotometric analysis; format: functional; settings: HepG2, 48 h
[16] = system: MCF7; test: Antiproliferative activity against human MCF7 cells assessed as inhibition of cell growth incubated for 48 hrs by MTT reagent based spectrophotometric analysis; format: functional; settings: MCF7, 48 h
[17] = system: K562; test: Antiproliferative activity against human K562 cells assessed as inhibition of cell growth incubated for 72 hrs by MTT assay; format: functional, cell-based; settings: K562, 72 h
[18] = system: DU-145; test: Cytotoxicity against human DU-145 cells assessed as inhibition of cell growth incubated for 48 hrs by MTT assay; format: functional, cell-based; settings: DU-145, 48 h
[19] = system: B16; test: Cytotoxicity against mouse B16 cells assessed as inhibition of cell growth incubated for 48 hrs by MTT assay; format: functional, cell-based; settings: B16, 48 h
[20] = system: HeLa; test: Cytotoxicity against human HeLa cells assessed as inhibition of cell growth incubated for 48 hrs by MTT assay; format: functional, cell-based
[21] = system: MCF7; test: Cytotoxicity against human MCF7 cells assessed as inhibition of cell growth incubated for 48 hrs by MTT assay; format: functional, cell-based; settings: MCF7, 48 h
[22] = system: A549; test: Cytotoxicity against human A549 cells assessed as inhibition of cell growth incubated for 48 hrs by MTT assay; format: functional, cell-based; settings: A549, 48 h
[23] = Antiproliferative activity against human CaLo cells assessed as inhibition of cell growth by crystal violet staining based spectrophotometric assay; format: functional
[24] = system: C-33-A; test: Antiproliferative activity against human C-33-A cells assessed as inhibition of cell growth by crystal violet staining based spectrophotometric assay; format: functional
[25] = system: SiHa; test: Antiproliferative activity against human SiHa cells assessed as inhibition of cell growth by crystal violet staining based spectrophotometric assay; format: functional
[26] = system: IMR-32; test: Antiproliferative activity against human IMR-32 cells assessed as inhibition of cell growth incubated for 48 hrs by MTT assay; format: functional, cell-based; settings: IMR-32, 48 h
[27] = Antiproliferative activity against human LA-N-1 cells assessed as inhibition of cell growth incubated for 48 hrs by MTT assay; format: functional, cell-based; settings: LAN1, 48 h
[28] = Antiproliferative activity against human NB-39-nu cells assessed as inhibition of cell growth incubated for 48 hrs by MTT assay; format: functional, cell-based
[29] = system: SK-N-SH; test: Antiproliferative activity against human SK-N-SH cells assessed as inhibition of cell growth incubated for 48 hrs by MTT assay; format: functional, cell-based
[30] = system: HepG2; test: Cytotoxicity against human HepG2 cells incubated for 48 hrs by MTT assay; format: functional, cell-based; settings: HepG2, 48 h
[31] = system: HeLa; test: Cytotoxicity against human HeLa cells incubated for 48 hrs by MTT assay; format: functional, cell-based
[32] = system: A549; test: Antiproliferative activity against human A549 cells assessed as inhibition of cell growth incubated for 24 hrs by trypan blue exclusion assay; format: functional, cell-based; settings: A549, 24 h
[33] = system: HeLa; test: Cytotoxicity against human HeLa cells incubated for 48 hrs by MTT microplate reader assay; format: functional, cell-based
[34] = system: MCF7; test: Antiproliferative activity against human MCF7 cells assessed as inhibition of cell growth incubated for 72 hrs by WST-1 assay; format: functional, cell-based; settings: MCF7, 72 h
[35] = system: Caco-2; test: Antiproliferative activity against human Caco-2 cells assessed as inhibition of cell growth incubated for 72 hrs by WST-1 assay; format: functional, cell-based; settings: Caco-2, 72 h
[36] = system: MDA-MB-231; test: Antiproliferative activity against human MDA-MB-231 cells assessed as inhibition of cell growth incubated for 72 hrs by WST-1 assay; format: functional, cell-based; settings: MDA-MB-231, 72 h
[37] = system: T47D; test: Antiproliferative activity against human T47D cells assessed as inhibition of cell growth incubated for 72 hrs by WST-1 assay; format: functional, cell-based
[38] = system: COLO-829; test: Antiproliferative activity against human COLO-829 cells assessed as inhibition of cell growth incubated for 72 hrs by WST-1 assay; format: functional, cell-based; settings: COLO-829, 72 h
[39] = system: A549; test: Antiproliferative activity against human A549 cells assessed as inhibition of cell growth incubated for 72 hrs by WST-1 assay; format: functional, cell-based; settings: A549, 72 h
[40] = system: U-87 MG; test: Cytotoxicity against human U87 cells assessed as inhibition of cell growth incubated for 72 hrs by resazurin assay; format: functional, cell-based, U-87MG ATCC
[41] = system: Huh-7; test: Cytotoxicity against human Huh-7 cells assessed as inhibition of cell growth incubated for 72 hrs by resazurin assay; format: functional, cell-based; settings: Huh-7, 72 h
[42] = system: MDA-MB-231; test: Cytotoxicity against human MDA-MB-231 cells assessed as inhibition of cell growth incubated for 72 hrs by resazurin assay; format: functional, cell-based; settings: MDA-MB-231, 72 h
[43] = system: MCF7; test: Cytotoxicity against human MCF7 cells assessed as inhibition of cell growth incubated for 72 hrs by resazurin assay; format: functional, cell-based; settings: MCF7, 72 h
[44] = system: HCT-116; test: Cytotoxicity against human HCT-116 cells assessed as inhibition of cell growth incubated for 72 hrs by resazurin assay; format: functional, cell-based; settings: HCT-116, 72 h

## O=C1C(Sc2ccc3ccccc3c2)=C(Sc2ccc3ccccc3c2)C(=O)c2ccccc21
[1]
  GI50: 7.21 µM
[2]
  GI50: 8.26 µM
[3]
  GI50: 9.92 µM
[4]
  GI50: 7.75 µM

## O=C1C=C(CCCCCCCCCC[P+](c2ccccc2)(c2ccccc2)c2ccccc2)C(=O)c2ccccc21
[5]
  IC50: 0.5 µM
[6]
  IC50: 0.4 µM
[7]
  IC50: 0.02 µM

## CC(=O)OC[C@H]1O[C@H](n2cc(COC3=CC(=O)c4ccccc4C3=O)nn2)[C@H](OC(C)=O)[C@H](OC(C)=O)[C@H]1OC(C)=O
[8]
  IC50: 14.7 µM
[9]
  IC50: 3.33 µM
[10]
  IC50: 0.78 µM
[11]
  IC50 at 72 h: 17.7 µM
[12]
  IC50: 5.3 µM
[13]
  IC50: 14 µM
[14]
  IC50: 8.5 µM

## O=C1C(Cl)=C(NNc2nnc3n2N=C(c2ccc(Cl)cc2)CS3)C(=O)c2ccccc21
[15]
  IC50: 0.07 µM
[16]
  IC50: 8.49 µM

## O=C1C=C(Nc2ccc(S(=O)(=O)c3ccc(NC(=S)N4CCCCC4)cc3)cc2)C(=O)c2ccccc21
[17]
  IC50: 5.8 µM

## CCc1ccc(-c2cn(CCNC3=C(C)C(=O)c4ccccc4C3=O)nn2)cc1
[18]
  IC50: 8.02 µM
[19]
  IC50: 20.2 µM
[20]
  IC50: 26.2 µM
[21]
  IC50: 8.73 µM
[22]
  IC50: 9.19 µM

## O=C1C(Cl)=C(NC(Cc2ccc(O)cc2)C(=O)O)C(=O)c2ccccc21 (centres undefined)
[23]
  IC50: 2.87 µM
[24]
  IC50: 0.001 µM
[25]
  IC50: 6.83 µM

## COCCSC1=C(C)C(=O)c2ccccc2C1=O
[26]
  IC50: 2.43 µM
[27]
  IC50: 1.55 µM
[28]
  IC50: 10.7 µM
[29]
  IC50: 3.45 µM

## C[C@@H](CC[C@H]1O[C@H]2C[C@H]3[C@@H]4CC=C5C[C@@H](O)CC[C@]5(C)[C@H]4CC[C@]3(C)[C@H]2[C@@H]1C)COC1=C(Cl)C(=O)c2ccccc2C1=O
[30]
  IC50: 1.24 µM
[31]
  IC50: 14.1 µM

## CCCC[S+]([O-])C1=CC(=O)c2ccccc2C1=O (centres undefined)
[32]
  IC50: 2.08 µM

## COc1ccc(C(C2=C(O)C(=O)c3ccccc3C2=O)c2c(C)[nH]n(-c3ccccc3)c2=O)c(O)c1 (centres undefined)
[33]
  IC50: 2.9 µM

## C=C(C)[C@@H]1CC[C@]2(COC(=O)c3cn(CCCOC4=C(Cl)C(=O)c5ccccc5C4=O)nn3)CC[C@]3(C)[C@H](CC[C@@H]4[C@@]5(C)CC[C@H](O)C(C)(C)[C@@H]5CC[C@]43C)[C@@H]12
[34]
  IC50: 11.7 µM
[35]
  IC50: 12.2 µM
[36]
  IC50: 10 µM
[37]
  IC50: 2.41 µM
[38]
  IC50: 12.5 µM
[39]
  IC50: 1.86 µM

## CCOC(=O)C(NC1=C(Cl)C(=O)c2ccccc2C1=O)C(C)=O (centres undefined)
[40]
  IC50: 18.9 µM
[41]
  IC50: 18.3 µM
[42]
  IC50: 15.9 µM
[43]
  IC50: 24.5 µM
[44]
  IC50: 13.9 µM

Reference: ChEMBL document CHEMBL5512632, “Unlocking the potential of 1,4-naphthoquinones: A comprehensive review of their anticancer properties” (Eur J Med Chem, 2024)
